Data from US10921324B2, “Compositions and methods related to the methylation of histone H1.0 protein” (Aelan Cell Technologies, Inc., priority 2016, dated 2021).
Entries after “also recorded” stand apart in the source; their conditions may differ. One block for each molecule: values may come before it. Ends that are not written are not given here. Me2 = dimethylated (lysine)

Key:
[1] = test system: chromatin bound H1.0 in hADSCs; experiment: LC-MS/MS of soluble and chromatin bound fractions of hADSCs after bleomycin; type: cell-based, human
Experimental: (§1) For replicative senescence, hADSCs were grown in culture until reaching replicative exhaustion (PD 41-46). For acute DNA damage conditions, SR hADSCs (PD 4-10) were treated with 50μg/ml bloemycin sulfate (Cayman Chemical, 13877) in growth media for 2 hours. For genotoxic stress induced senescence, SR hADSCs (PD 4-10) were treated with 50 μg/ml bloemycin sulfate (Cayman Chemical, 13877) in growth media for 2 hours then washed with PBS and given fresh growth media without bleomycin. Cells were then grown for 3 days before collection.
SR hADSCs, hADSCs treated with bleomycin for 2 hours (acute DNA damage) and hADSCs treated with bleomycin and allowed to senesce for 3 days (genotoxic stress induced senescence) were lysed and fractionated into soluble and chromatin bound fractions. These fractions were then subjected to LC-MS/MS analysis. Peptide expression levels were taken as the total area under the LC-MS/MS relative intensity curve, and individual peptides were unambiguously assigned to proteins using Pinpoint software, version 1.4 (Thermo Scientific). The areas of all peptides assigned to an individual protein were summed to yield protein expression levels, which were normalized against the total protein library size for each sample. For each cellular fraction, H1.0 peptide abundance is represented as a percentage of total H1.0 peptides observed in each condition. […]

[2] = test system: secretion of H1.0K180me2 from hADSCs; experiment: Slot blot of culture media of hADSCs treated with bleomycin; type: cell-based, human
Experimental: 0.5 μl of serum sample or known amounts of synthesized peptide were diluted in 200 μl TBS. Samples were then heat denatured at 70° C. for 10 minutes before being transferred to nitrocellulose membrane using a vacuum manifold slot blot apparatus (BioRad, 1706542). The membrane was blocked with 5% non-fat milk in PBS-T for 30 minutes at RT then immunoblotted with the above primary antibodies at 4° C. over night. Proteins were detected with HRP secondary antibodies listed above for 1 hour at RT followed by ECL Western Blotting Substrate (ThermoFisher, 32106) using manufacturers instructions. All washes between steps were with PBS-T. Membranes were imaged with Omega LUM-C imaging system (Gel Company). Slot blot bands for each sample were then quantified using ImageJ.
SR hADSCs, hADSCs treated with bleomycin for 2 hours (acute DNA damage) and hADSCs treated with bleomycin and allowed to senesce for 3 days (genotoxic stress induced senescence) were lysed and fractionated into soluble and chromatin bound fractions. These fractions were then subjected to LC-MS/MS analysis. Peptide expression levels were taken as the total area under the LC-MS/MS relative intensity curve, and individual peptides were unambiguously assigned to proteins using Pinpoint software, version 1.4 (Thermo Scientific). The areas of all peptides assigned to an individual protein were summed to yield protein expression levels, which were normalized against the total protein library size for each sample. For each cellular fraction, H1.0 peptide abundance is represented as a percentage of total H1.0 peptides observed in each condition. Normalized absolute values of H1.0 peptide levels in each fraction were also shown. […] Culture media from SR hADSCs treated with bleomycin was collected for slot blot analysis with α-H1.0 and α-H1.0K180me2 antibodies to assess secretion of H1.0 to the extracellular matrix (ECM). The experiment was carried out according to methods described in Example 1. […] This signifies secretion out of the cells.

[3] = test system: H1.0K180me2 in hADSCs; experiment: Western blot / localization of H1.0K180me2 in hADSCs after bleomycin (acute DNA damage); type: cell-based, human
Experimental: as §1
(§2) Material for western blot analysis (cultured cells or tissue) was lysed in ice-cold RIPA lysis buffer (Thermo Scientific 89900) and sonicated using a Covaris S2 sonicator (10% duty cycle, Intensity 5, Bursts per minute 100, 120 seconds). Total protein concentration in each sample was quantified using Quick Start Bradford 1× Dye Reagent (BioRad, 5000205) following manufacturer's protocol. Samples were then mixed with NuPAGE LDS sample loading buffer (ThermoFisher, NP0007) and NuPAGE sample reducing buffer (ThermoFisher, NP0004), and heat denatured at 70° C. for 10 minutes. […] Proteins were detected with HRP secondary antibodies listed above for 1 hour at RT followed by ECL Western Blotting Substrate (ThermoFisher, 32106) using manufacturer's instructions. […]

[4] = molecular target: T1, GLP methyltransferase (Homo sapiens, UniProt Q9H9B1); experiment: In vitro methylation of K180 dimethylated H1.0 peptide with GLP, products by LC-MS; type: biochemical; conditions: K180 dimethylated H1.0 peptide as substrate, only H1.0K180 and H1.0K174 further methylated
T1 construct: purchased Cayman Chemical 10755
T1 sequence (Q9H9B1 1-1298): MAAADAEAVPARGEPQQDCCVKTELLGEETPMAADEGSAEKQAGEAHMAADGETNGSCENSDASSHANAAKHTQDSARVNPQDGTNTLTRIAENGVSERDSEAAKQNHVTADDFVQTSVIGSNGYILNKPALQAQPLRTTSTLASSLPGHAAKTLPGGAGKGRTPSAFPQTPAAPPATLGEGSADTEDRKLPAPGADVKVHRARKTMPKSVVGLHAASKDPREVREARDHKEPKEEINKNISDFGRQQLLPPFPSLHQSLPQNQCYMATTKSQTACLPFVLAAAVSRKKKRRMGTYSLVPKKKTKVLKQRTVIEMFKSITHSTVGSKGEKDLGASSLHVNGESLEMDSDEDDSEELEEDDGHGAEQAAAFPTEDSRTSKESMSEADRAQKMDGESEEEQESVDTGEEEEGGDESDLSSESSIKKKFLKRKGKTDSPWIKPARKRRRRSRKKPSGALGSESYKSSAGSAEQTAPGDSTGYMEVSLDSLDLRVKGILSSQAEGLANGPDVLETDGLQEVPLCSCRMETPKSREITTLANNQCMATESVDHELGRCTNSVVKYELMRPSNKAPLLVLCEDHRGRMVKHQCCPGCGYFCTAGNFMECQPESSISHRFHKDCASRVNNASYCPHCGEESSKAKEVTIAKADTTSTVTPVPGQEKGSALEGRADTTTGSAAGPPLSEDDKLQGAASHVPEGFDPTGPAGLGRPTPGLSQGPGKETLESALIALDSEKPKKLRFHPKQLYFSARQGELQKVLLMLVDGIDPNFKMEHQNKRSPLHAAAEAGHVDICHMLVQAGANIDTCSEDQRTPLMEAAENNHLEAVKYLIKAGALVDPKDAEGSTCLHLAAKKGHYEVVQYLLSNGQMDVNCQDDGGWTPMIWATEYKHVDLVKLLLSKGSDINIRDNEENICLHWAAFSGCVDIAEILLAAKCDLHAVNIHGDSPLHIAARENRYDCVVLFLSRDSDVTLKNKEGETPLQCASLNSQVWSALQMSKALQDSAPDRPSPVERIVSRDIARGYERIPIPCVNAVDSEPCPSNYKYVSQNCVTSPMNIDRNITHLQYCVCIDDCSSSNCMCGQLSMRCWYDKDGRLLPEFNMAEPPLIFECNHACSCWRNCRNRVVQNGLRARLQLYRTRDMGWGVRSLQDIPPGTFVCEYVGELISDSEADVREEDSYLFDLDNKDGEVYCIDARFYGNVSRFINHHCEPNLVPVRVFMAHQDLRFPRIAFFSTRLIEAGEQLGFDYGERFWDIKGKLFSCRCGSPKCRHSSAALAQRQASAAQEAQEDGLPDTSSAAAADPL
Experimental: In order to identify the precise sites of methylation by G9A and GLP methyltransferases on histone H1.0, in vitro methylation assays were performed and subsequently analyzed by Liquid Chromatography and High-resolution Mass Spectrometry (LC-MS) analysis. Methylation reactions were set up using either G9A methyltransferase (NEB, M0235S, Lot #0031201) or GLP methyltransferase (Cayman Chemical, 10755). The methyl donor in each reaction was unlabeled S-Adenosyl-L-Methionine (NEB, B9003S). […]
(§3) For the Liquid Chromatography and High-resolution Mass Spectrometry (LC-MS) analysis, samples were prepared as described above and about 1 μg o the product was injected onto a Thermo Scientific Easy nLC system configured with a 10 cm×100 um trap column and a 25 cm×100 um ID resolving column. […] This ensured optimal full-scan data for quantification. […]
Protein identification was performed using Thermo Scientific Proteome Discoverer version 1.4 (including Sequest and Percolator algorithms) using RefSeqHuman sequence database. […] Protein quantification was performed using Pinpoint version 1.4 software. The Pinpoint quantification workflow included importing the Proteome Discoverer .msf files as spectral libraries. Identified peptides were subsequently quantified in MS .raw files using the Pinpoint peak finding, chromatographic alignment and area calculation algorithms. […]

[5] = test system: G9A methyltransferase; experiment: In vitro methylation of K180me2 H1.0 peptide with G9A, products by LC-MS; type: biochemical
Sequence of G9A methyltransferase (Q9Z148 969-1263 limits assumed): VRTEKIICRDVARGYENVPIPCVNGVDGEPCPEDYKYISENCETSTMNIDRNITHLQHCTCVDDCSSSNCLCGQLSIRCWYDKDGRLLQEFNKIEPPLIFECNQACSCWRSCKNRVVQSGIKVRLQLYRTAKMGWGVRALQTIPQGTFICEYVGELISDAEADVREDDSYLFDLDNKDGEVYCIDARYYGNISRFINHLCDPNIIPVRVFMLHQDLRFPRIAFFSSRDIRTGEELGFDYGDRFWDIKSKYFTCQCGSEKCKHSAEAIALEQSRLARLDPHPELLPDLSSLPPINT
Experimental: In order to identify the precise sites of methylation by G9A and GLP methyltransferases on histone H1.0, in vitro methylation assays were performed and subsequently analyzed by Liquid Chromatography and High-resolution Mass Spectrometry (LC-MS) analysis. Methylation reactions were set up using either G9A methyltransferase (NEB, M0235S, Lot #0031201) or GLP methyltransferase (Cayman Chemical, 10755). The methyl donor in each reaction was unlabeled S-Adenosyl-L-Methionine (NEB, B9003S). The H1.0 substrate in each reaction was either unmodified H1.0 peptide labeled with biotin (ThermoFisher Scientific, Biotin-[…] (SEQ ID NO:69)), di-methylated H1.0 peptide (ThermoFisher Scientific, Biotin-[…]^(me2)PK (SEQ ID NO:70)), or full-length recombinant human H1.0 (NEB, M2501S). Methylation reactions were set up in triplicate for each condition as follows: 1×HMT reaction buffer (50 mM Tris-HCl, 5 mM MgCl2, 4 mM dithiothreitol, pH 9.0); 10U G9A or GLP Methyltransferase; 3.2 mM S-Adenosyl-L-Methionine; 500 ng unmodified or modified H1.0 peptide, or 1 μg full-length protein; final volume 10 μl. As controls, reactions were set up as above but without any methyltransferase present. All reactions were incubated in a thermocycler at 37° C. for 1 hour, and subsequently stopped by incubating on ice for 5 minutes. Samples were frozen at −80° C. prior to LC-MS analysis.
as §3, with “column. Buffer A was 98% water, 2% methanol, and 0.2% formic acid.” for “column.”
Protein identification was performed using Thermo Scientific Proteome Discoverer version 1.4 (including Sequest and Percolator algorithms) using RefSeqHuman sequence database. […] Protein quantification was performed using Pinpoint version 1.4 software. The Pinpoint quantification workflow included importing the Proteome Discoverer .msf files as spectral libraries. Identified peptides were subsequently quantified in MS .raw files using the Pinpoint peak finding, chromatographic alignment and area calculation algorithms.
To further address the sensitivity and specificity of G9A methylation to lysine 180 of H1.0 peptide, the K180me2 peptide (H1.0 AA 165-182) was used as a substrate in similar in vitro methylation experiments. Only minor quantitates of further methylated peptide were detected: H1.0K166me1K180me2 (1.27% of the total peptide in the reaction), H1.0K174me1K180me3 (1.06% of the total peptide in the reaction) and H1.0K174me3K175me3K177me1K180me2 (0.35% of the total peptide in the reaction) as shown in FIG. 9B FIG. 10.

[6] = test system: H1.0K180me2 appearance in SR hADSCs; experiment: Western blot of H1.0K180me2 in hADSCs treated with bleomycin after rapamycin or everolimus pretreatment; type: cell-based, human; conditions: 500 nM pretreatment for 24 hours, then bleomycin 2 hours
Source text: as §2, with “minutes. Proteins were separated on 4-12% precast polyacrylamide gels (ThermoFisher, NP0321) by electrophoresis and transferred to 0.45 μm nitrocellulose membrane.” for “minutes.”
To test if rapamycin derivatives can block H1.0K180me2 appearance upon DNA damage, SR hADSCs were treated with bleomycin for 2 hours with or without pretreatment with rapamycin or everolimus (a derivative of rapamycin) for 24 hours. Cells were then lysed and analyzed be western blot for H1.0K180me2, γH2A.X and β-Actin, according to methods described in Example 1.

[7] = K180me2 peptide (H1.0 AA 165-182) as substrate

Molecule: bleomycin
chromatin bound H1.0, % of total ([1]; acute DNA damage (bleomycin 2 hours)): ~60%
chromatin bound H1.0, % of total ([1]; genotoxic stress induced senescence (bleomycin 2 hours, then 3 days)): ~30%
secreted H1.0K180me2 in cell culture media ([2]; after 24 hours of bleomycin treatment): secreted H1.0K180me2 was also readily detected
time of maximal H1.0K180me2 secretion ([2]; conditioned medium, time course after bleomycin): ≤ 48 h
DFFB secretion ([2]; upon GSI-SEN, starting 48 hours after treatment): increase in DFFB secretion
localization of H1.0K180me2 ([3]; SR hADSCs treated with bleomycin): H1.0K180me2 localized to the cytoplasm
H1.0K180me2 on chromatin ([3]; bleomycin 50 μg/ml 2 hours, chromatin bound fraction, western blot): methylation of H1.0K180 on the chromatin upon DNA damage; also recorded: H1.0K180me2 is found on chromatin

peptides further methylated [4]: 1.02%
H1.0K166me1K180me2, % of the total peptide in the reaction [5, 7]: 1.27%
H1.0K174me1K180me3, % of the total peptide in the reaction [5, 7]: 1.06%
H1.0K174me3K175me3K177me1K180me2, % of the total peptide in the reaction [5, 7]: 0.35%
peptides further methylated ([5]; dimethylated H1.0 peptide as substrate): 2.64%
Molecule: AKPVKASKPKKAKPVK(me2)PK (chain 1 AKPVKASKPKKAKPVK(Me2)PK; chain 2 AKPVKASKPKKAKPVK(Me2)PK; not fully specified (N-terminus)) [K180 dimethylated H1.0 peptide, H1.0 AA 165-182 peptide dimethylated at K180]

Molecule: CO[C@H]1C[C@@H]2CC[C@@H](C)[C@@](O)(O2)C(=O)C(=O)N2CCCC[C@H]2C(=O)O[C@H]([C@H](C)C[C@@H]2CC[C@@H](OCCO)[C@H](OC)C2)CC(=O)[C@H](C)/C=C(\C)[C@@H](O)[C@@H](OC)C(=O)[C@H](C)C[C@H](C)/C=C/C=C/C=C/1C [everolimus]
appearance of H1.0K180me2 upon bleomycin treatment [6]: blocks H1.0K180me2 deposition on chromatin; also recorded: blocks H1.0K180me2 appearance
